This is an account of results in US5164189A, “Single layer transdermal drug administration system” (priority 1991, dated 1992).

For data set [1] the following is noted: cited from earlier work.
The next data set can be described thus: in vivo. Particulars: rhesus monkey, iv, 0.05 mg/kg.
A short description of data set [2]: Intravenous albuterol pharmacokinetics in Rhesus monkeys. Particulars: 0.05 mg/kg.
Method: (§1) This solution was injected into the saphenous vein of each monkey at a dose of 1 mL/Kg of bodyweight.
(§2) The serum from each blood sample was separated from other blood components via centrifugation, and then stored at -20° C. until the analysis described in Example 1(f)(1) was performed.
(§3) In separate clean test tubes, 1.5 mL of serum standard (Example 1(d)), serum sample (Examples 1(d) and (e)) and blank (Example 1(d)) was separately buffered with 150 microliters of a 0.42 M phosphate buffer, pH 7.2.
(§4) Each serum sample was then extracted with 4.5 mL of chloroform containing 0.1 M Di (2-ethylhexyl) phosphate (DEHP). The chloroform layer was separated into clean screw cap test tubes and mixed with 375 microliters of a 0.5 M HCl solution.
(§5) The aqueous extracts were then separated by centrifugation and analyzed by the HPLC-Fluorescence procedure described directly below.
(§6) The HPLC system consisted of a Waters Model 590 (Millipore Corporation, Bedford, Mass.) solvent delivery system equipped with a Waters Model 710 B Wisp auto injector, a Zorbax CN column (Dupont, 6 micron particles, 25 cm×4.6 mm internal diameter), Kratos (Kratos Analytical Instruments)Model 970 fluorescence detector (excitation 225 nm and emission 280 nm), and the Ingrad Data Analysis system (G. D. Searle & Co.). […] The mobile phase was pumped at a flow rate of 1.0 mL/minute. The injection volume was 100 microliters. The sensitivity of the method was 2.0 ng/mL.
(§7) The coefficient of variation associated with low (10 ng/mL) and high (80 ng/mL) quality control standard solutions were 4.5 and 3.4 percent, respectively.

Method for in vivo: as §1, §2, §3, §4, §5, §6, §7

Regarding `CC(C)(C)NCC(O)c1ccc(O)c(CO)c1` (centres unmarked) [albuterol], the “Apparent volume of distribution in humans” value in data set [1] (human) was 2.2 L/kg. Further, the Oral bioavailability in data set [1] (oral, extensive first pass metabolism, 'as low as') is at least 10%. Moreover, the AUC in the data set “in vivo” was found to be 84.2 ng·h/mL. Moreover, in data set [2] (50 mcg/Kg IV, Rhesus monkeys, n=4, mean), the “Apparent volume of distribution” value is 1.9359 L/kg. For the same compound, the Vd in data set [2] (rhesus monkey, serum, iv) is 1.94 ± 0.0372 L/kg.
